According to ChEMBL document CHEMBL1201862, “PubChem BioAssay data set” (2004):
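Method: 48-hour compound exposure of cells in 96-well plates, five concentrations, linear interpolation of endpoints. At the GI50, growth is halved.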 Active and inactive are the calls of the source. Rule as the data show it: active = GI50 up to about 1.1 µM and inactive = higher.

Key:
Test in all cases: NCI-60 cell line screen, 48 h
[1] = system: NCI-H23
[2] = system: ACHN
[3] = system: DU-145
[4] = system: SF-295
[5] = system: HOP-92
[6] = system: OVCAR-5
[7] = system: OVCAR-8
[8] = system: EKVX
[9] = system: SF-539
[10] = system: T47D
[11] = system: CAKI-1
[12] = system: Malme-3M
[13] = system: M14
[14] = system: HCT-15
[15] = system: RPMI-8226
[16] = system: SF-268
[17] = system: NCI-H460
[18] = system: CCRF-CEM
[19] = system: HL-60

Row | Structure (SMILES) | GI50 [1] | GI50 [2] | GI50 [3] | GI50 [4] | GI50 [5] | GI50 [6] | GI50 [7] | GI50 [8] | GI50 [9] | GI50 [10] | GI50 [11] | GI50 [12] | GI50 [13] | GI50 [14] | GI50 [15] | GI50 [16] | GI50 [17] | GI50 [18] | GI50 [19]
1 | O=C1c2ccccc2C(=O)c2c(NC(=O)c3ccc4c5c(ncnc35)-c3ccccc3C4=O)cccc21 | 33.4 µM (inactive) | > 100 µM (inactive) | > 100 µM (inactive) | 23.4 µM (inactive) | 53.3 µM (inactive) | > 100 µM (inactive) | > 100 µM (inactive) | > 100 µM (inactive) | 52.4 µM (inactive) | > 100 µM (inactive) | > 100 µM (inactive) | > 100 µM (inactive) | > 100 µM (inactive) | > 100 µM | > 100 µM (inactive) | 97.5 µM (inactive) | > 100 µM (inactive) | – | –
2 | C=CCCC1(CC(Sc2ccccc2)P(=O)(c2ccccc2)c2ccccc2)OCCO1 (configuration not stated) | > 10 µM (inactive) | > 10 µM (inactive) | > 10 µM (inactive) | > 10 µM (inactive) | – | > 10 µM (inactive) | > 10 µM (inactive) | > 10 µM (inactive) | > 10 µM (inactive) | > 10 µM (inactive) | > 10 µM (inactive) | > 10 µM (inactive) | > 10 µM (inactive) | > 10 µM | > 10 µM (inactive) | > 10 µM (inactive) | > 10 µM (inactive) | > 10 µM (inactive) | > 10 µM (inactive)
3 | CC(C)(C)C1CCC2c3c([nH]c4ccccc34)C3C(=O)N(c4ccc5c(c4)C(=O)c4ccccc4C5=O)C(=O)C3C2C1 (configuration not stated) | > 100 µM (inactive) | > 100 µM (inactive) | > 100 µM (inactive) | > 100 µM (inactive) | – | > 100 µM (inactive) | > 100 µM (inactive) | > 100 µM (inactive) | > 100 µM (inactive) | > 100 µM (inactive) | > 100 µM (inactive) | > 100 µM (inactive) | > 100 µM (inactive) | > 100 µM | > 100 µM (inactive) | > 100 µM (inactive) | > 100 µM (inactive) | > 100 µM (inactive) | > 100 µM (inactive)
4 | CCCCCCCCCCCCCCCCCCOC(COP(=O)(O)OCC1OC(n2cc(F)c(=O)[nH]c2=O)CC1O)COP(=O)(O)OCC1OC(n2ccc(N)nc2=O)C(O)C1O (configuration not stated) | 7.98 µM (inactive) | 0.474 µM (active) | 3.33 µM (inactive) | 2.58 µM (inactive) | – | 66.8 µM (inactive) | 4.51 µM (inactive) | > 100 µM (inactive) | 0.863 µM (active) | > 100 µM (inactive) | 13.2 µM (inactive) | > 68.9 µM (inactive) | 6.34 µM (inactive) | 31.4 µM | 10.9 µM (inactive) | 0.536 µM (active) | 0.159 µM (active) | 4.81 µM (inactive) | 3.66 µM (inactive)
5 | COc1cc2c3cc1Oc1c(OC)c(OC)cc4c1C(Cc1ccc(O)c(c1)-c1cc(ccc1OC)CC3N(C)CC2)N(C)CC4 (configuration not stated) | 21.4 µM (inactive) | 15.8 µM (inactive) | 50.8 µM (inactive) | 16.5 µM (inactive) | 20.2 µM (inactive) | 44.8 µM (inactive) | 17.4 µM (inactive) | 25.6 µM (inactive) | 7.08 µM (inactive) | 24.2 µM (inactive) | 16.4 µM (inactive) | 18.2 µM (inactive) | 3.18 µM (inactive) | 6.07 µM | – | 19.1 µM (inactive) | 16 µM (inactive) | – | 2.66 µM (inactive)
6 | CCn1c(=O)c2c3cc(O)ccc3oc2c2ccc(O)cc21 | 41.3 µM (inactive) | 21.3 µM (inactive) | 29.4 µM (inactive) | 25 µM (inactive) | 26.2 µM (inactive) | – | 36.7 µM (inactive) | 24.7 µM (inactive) | 16.7 µM (inactive) | 12.6 µM (inactive) | 34.3 µM (inactive) | 32.7 µM (inactive) | 31.2 µM (inactive) | 31 µM | – | 27.5 µM (inactive) | 26.9 µM (inactive) | 21.1 µM (inactive) | –
7 | COc1ccc2c(c1)CCN1CCCc3ccc(OC)cc3C21 (configuration not stated) | 68.5 µM (inactive) | > 100 µM (inactive) | > 100 µM (inactive) | 24.6 µM (inactive) | 63.8 µM (inactive) | 89.9 µM (inactive) | > 100 µM (inactive) | > 100 µM (inactive) | 50.4 µM (inactive) | 50.6 µM (inactive) | 41.8 µM (inactive) | – | 24.2 µM (inactive) | 54.8 µM | 31.6 µM (inactive) | 82.6 µM (inactive) | – | 42.6 µM (inactive) | –
8 | CC(=O)OC(Cc1cc(C=C(C(F)(F)F)C(F)(F)F)cc(C)n1)(C(F)(F)F)C(F)(F)F | 1.45 µM (inactive) | 1.39 µM (inactive) | 2.48 µM (inactive) | 2.82 µM (inactive) | – | 2.18 µM (inactive) | 1.04 µM (active) | 2.01 µM (inactive) | 2.06 µM (inactive) | 1.9 µM (inactive) | 1.77 µM (inactive) | 2.48 µM (inactive) | 1.57 µM (inactive) | 0.975 µM | 0.656 µM (active) | 1.74 µM (inactive) | 1.99 µM (inactive) | 0.217 µM (active) | 0.124 µM (active)
9 | CN(CCN1CCCC1)C1CCc2cc(Cl)c(Cl)cc2C1 (configuration not stated) | 15 µM (inactive) | 16.9 µM (inactive) | 13.2 µM (inactive) | 15.7 µM (inactive) | – | 15.3 µM (inactive) | 16.2 µM (inactive) | 20.6 µM (inactive) | 16.1 µM (inactive) | 6.37 µM (inactive) | 17.3 µM (inactive) | 18.9 µM (inactive) | 15 µM (inactive) | 13.2 µM | 17.2 µM (inactive) | 17.1 µM (inactive) | 16.6 µM (inactive) | 26.4 µM (inactive) | 12.6 µM (inactive)
10 | O=C1Cc2c(-c3ccccc3)cc(-c3ccc4ccccc4c3)nc2-c2ccccc2N1 | 6.4 µM (inactive) | 3.72 µM (inactive) | 34.5 µM (inactive) | 17.8 µM (inactive) | 4.05 µM (inactive) | 24.7 µM (inactive) | 1.46 µM (inactive) | 7.16 µM (inactive) | 4.7 µM (inactive) | 18 µM (inactive) | 3.25 µM (inactive) | 7.06 µM (inactive) | 9.2 µM (inactive) | 37.8 µM | 17.7 µM (inactive) | 4.29 µM (inactive) | 11.4 µM (inactive) | > 100 µM (inactive) | –
11 | O=S(=O)(c1ccccc1)n1c(C(O)c2ccncc2)cc2ccccc21 (configuration not stated) | 44.7 µM (inactive) | 37.7 µM (inactive) | 40.5 µM (inactive) | 48.5 µM (inactive) | 27 µM (inactive) | > 100 µM (inactive) | 50.6 µM (inactive) | 38.5 µM (inactive) | > 100 µM (inactive) | 36 µM (inactive) | 58.9 µM (inactive) | – | 32.7 µM (inactive) | 33.7 µM | 27.1 µM (inactive) | – | 26.2 µM (inactive) | 35.6 µM (inactive) | –
12 | COc1cc2c(cc1OCCCOc1cc3c(cc1OC)C(=O)N1CCC[C@H]1CN3)N=C[C@@H]1CCCN1C2=O | 0.158 µM (active) | 0.0986 µM (active) | 0.357 µM (active) | 0.123 µM (active) | 0.145 µM (active) | 0.182 µM (active) | 0.232 µM (active) | 1.89 µM (inactive) | 0.024 µM (active) | 0.0309 µM (active) | 0.324 µM (active) | 0.115 µM (active) | 0.0753 µM (active) | 1.86 µM | – | 0.0234 µM (active) | 0.228 µM (active) | < 0.01 µM (active) | 0.0291 µM (active)
13 | Cc1cc(OC(=O)Nc2cccc3ccccc23)c(C(C)C)cc1C(=S)Nc1ccccc1 | 15.7 µM (inactive) | 24.2 µM (inactive) | 22.3 µM (inactive) | 0.0608 µM (active) | – | 20.7 µM (inactive) | 12.7 µM (inactive) | 23.7 µM (inactive) | 16.7 µM (inactive) | 8.17 µM (inactive) | 22.1 µM (inactive) | 17.3 µM (inactive) | 18.6 µM (inactive) | 10.9 µM | 21.1 µM (inactive) | 23.9 µM (inactive) | 16.9 µM (inactive) | 7.6 µM (inactive) | 2.42 µM (inactive)
14 | COC(=O)C1=C(OC)C(=P2(c3ccccc3)CC(c3ccccc3)=C2c2ccccc2)C(C(=O)OC)=C1C(=O)OC (configuration not stated) | 33.8 µM (inactive) | 49.8 µM (inactive) | > 61.2 µM (inactive) | > 76.6 µM (inactive) | – | > 100 µM (inactive) | > 95.7 µM (inactive) | > 91.8 µM (inactive) | 23.6 µM (inactive) | 15.5 µM (inactive) | 50.4 µM (inactive) | 29.9 µM (inactive) | 43.5 µM (inactive) | 11 µM | 9.42 µM (inactive) | > 61.1 µM (inactive) | 15 µM (inactive) | 0.745 µM (active) | 0.968 µM (active)
15 | CCOC(=O)c1c(C)cc(=O)n2c1[nH]c1ccccc12 | > 100 µM (inactive) | 42.5 µM (inactive) | > 100 µM (inactive) | 74.6 µM (inactive) | > 100 µM (inactive) | > 100 µM (inactive) | > 100 µM (inactive) | > 100 µM (inactive) | 31 µM (inactive) | > 100 µM (inactive) | 17.2 µM (inactive) | > 100 µM (inactive) | > 100 µM (inactive) | 50.9 µM | – | – | 14.1 µM (inactive) | > 100 µM (inactive) | > 100 µM (inactive)
16 | CC1=C(C(=O)NNC(=O)Cc2ccccc2)CC(C(=O)NNC(=O)Cc2ccccc2)=C(C)N1 | > 100 µM (inactive) | > 100 µM (inactive) | > 100 µM (inactive) | > 100 µM (inactive) | > 100 µM (inactive) | > 100 µM (inactive) | > 100 µM (inactive) | > 100 µM (inactive) | > 100 µM (inactive) | 54.8 µM (inactive) | > 100 µM (inactive) | – | > 100 µM (inactive) | > 100 µM | – | > 100 µM (inactive) | > 100 µM (inactive) | – | 25.5 µM (inactive)
